From patent publication US20200283728A1, “MODIFIED T CELLS AND USES THEREOF” (MUSC FOUNDATION FOR RESEARCH DEVELOPMENT, priority 2017, published 2020) come the findings set out here.

Assay type in all cases: cell-based, mouse
For experiment [1], the system named is ICOS-activated Th17 cells. In words: Cytokine production of ICOS-stimulated TRP-1 Th17 cells expanded with inhibitors (intracellular FACS). Conditions: 8 days of expansion, vs un-treated Th17 cells. On the procedure: (§1) Expansion of Th17 cells with Wnt/β-catenin and PI3K inhibitors in vitro: TRP-1 splenocytes were activated with irradiated (10Gy) C57BL/6 splenocytes pulsed with TRP-1 peptide (1 μM) added at a 5:1 ratio in 24-well plates (1 mL media containing 1.5×10^6 cells/well). TRP-1 splenocytes were co-stimulated with soluble ICOS agonist (Clone 398.4A, BioLegend) and polarized toward Th17 phenotype as describe above. For in vitro expansion from day 0 of culture 10 μM Ly294002 (Cayman Chemical) or 10 μM CAL-101 (Selleckchem) and/or 60 μM indomethacin (Sigma-Aldrich) was added. Also dimethylosulfoxide 0.01% (Sigma-Aldrich) was added as a control. Th17 cultures were also supplemented with hrIL-2 (100 IU/mL) and rmIL-23 ([…]; R&D). Medium, including cytokines and inhibitors was refreshed every 2-3 days.
Surface staining of Th17 cells was performed with anti-CD4-APCCy7, anti-Vβ14-FITC (BD Biosciences) anti-CD62L-APC, anti-CD44-PerCPCy5.5, anti-CCR6-PE, anti-CD69-PECy7, anti-CCR7-PE, anti-CD27-PE, anti-CD28-PerCPCy5.5, anti-ICOS-PE and anti-CD25-PECy7/FITC (BioLegend) and viability stain (Invitrogen) on day 8. For all intracellular staining of cytokines (anti-IL-17 PerCPCy5.5, anti-IFN-γ-v450, anti-IL-2-FITC, anti-IL-21-APC, anti-IL-22-PE, anti-TNF-α-FITC; BioLegend) and transcription factors (anti-RORγt-APC, anti-cMaf-PerCPCy5.5, anti-STAT-3-PE, anti-FoxP3-FITC/PE, anti-T-bet-v450; eBiosciences), cells were stimulated for 4-5 h with 50 ng/mL PMA and 750 ng/mL ionomycin (Sigma-Aldrich). Additional antibodies used include: CD127-PECy7 clone A019D5, CD25-APCCy7 clone BC96, CD4-APCCy7 OKT4, CD45RO-APC clone UCHL1, CD62L-FITC clone DREG-56, CD8-PerCPCy5.5 clone SKI, TIM3-PE clone F38-2E2 (biolegend); CCR7-PECy7 clone CCR7, CD8-V450 clone RPA-T8, PD1-FITC clone M1H4, (BD Biosciences). Antibodies used for mouse cell analysis: CD127-PE/V450 clone A7R34, CD25-FITC clone 7D4, CD44-PerCPCy5.5/FITC clone IM7, CD69-PECy7 clone HI.2F3, CD8-PerCPCy5.5 clone 53-6.7, CD8-PECy7 clone YTS156.7.7, PD1-PerCPCy5.5 clone 29F.1A12 V[…]13-PE/APC clone MR12-3/MR12-4 (Biolegend), CD4-APCCy7 clone RM4-5, CD62L-APC clone MEL-14, KLRG1-APC/V450 clone 2F1 (BD). After 1 h, Monensin (BioLegend) was added per manufacturer's instructions. After surface staining, intracellular staining for cytokines and transcription factors was performed using Fixation and Permeabilization buffers (BioLegend) and Foxp3 Staining Buffers (eBioscience), respectively. Flow cytometry acquisition was performed on a FACSVerse or Accuri (BD Bioscience). Data were analyzed with FlowJo software (TreeStar). For experiments with sorted cells, CD8^+Vb13^+ T cells were sorted from pmel-1 cultures using Dynabeads untouched mouse CD8^+ T cell kit (Invitrogen) and a FACSAria cell sorting machine (BD Biosciences).

Experiment [2] deals with ICOS-activated Th17 cells. Nature of the experiment: Cytokine secretion of Th17 cells three days after priming (ELISA). Conditions: day 3 after priming. On the procedure: as §1, with “TRP-1” left out, “days. Cytokine levels were measured using the mouse IL-17A, INF-γ, IL-2, IL-9, IL-10, IL-21, IL-22, CCL-20, GM-CSF ELISA kits (R&D) following the manufacturer's protocol.” for “days.”
On the technique in general: ELISA stands for enzyme-linked immunosorbent assay.

Experiment [3] deals with ICOS-activated Th17 cells. In words: Memory and regulatory phenotype of ICOS-stimulated Th17 cells expanded with inhibitors (flow cytometry). Conditions: day 8 in vitro. The procedure: as §1
Surface staining of Th17 cells was performed with anti-CD4-APCCy7, anti-Vβ14-FITC (BD Biosciences) anti-CD62L-APC, anti-CD44-PerCPCy5.5, anti-CCR6-PE, anti-CD69-PECy7, anti-CCR7-PE, anti-CD27-PE, anti-CD28-PerCPCy5.5, anti-ICOS-PE and anti-CD25-PECy7/FITC (BioLegend) and viability stain (Invitrogen) on day 8. For all intracellular staining of cytokines (anti-IL-17 PerCPCy5.5, anti-IFN-γ-v450, anti-IL-2-FITC, anti-IL-21-APC, anti-IL-22-PE, anti-TNF-α-FITC; BioLegend) and transcription factors (anti-RORγt-APC, anti-cMaf-PerCPCy5.5, anti-STAT-3-PE, anti-FoxP3-FITC/PE, anti-T-bet-v450; eBiosciences), cells were stimulated for 4-5 h with 50 ng/mL PMA and 750 ng/mL ionomycin (Sigma-Aldrich). Additional antibodies used include: CD127-PECy7 clone A019D5, CD25-APCCy7 clone BC96, CD4-APCCy7 OKT4, CD45RO-APC clone UCHL1, CD62L-FITC clone DREG-56, CD8-PerCPCy5.5 clone SKI, TIM3-PE clone F38-2E2 (biolegend); CCR7-PECy7 clone CCR7, CD8-V450 clone RPA-T8, PD1-FITC clone M1H4, (BD Biosciences). […] Data were analyzed with FlowJo software (TreeStar). […]

[4] abbreviates: CAL-101 10 μM, Indo 60 μM, Ly294002 10 μM.

With `COc1ccc2c(c1)c(CC(=O)O)c(C)n2C(=O)c1ccc(Cl)cc1` [Indo, indomethacin], in experiment [1] (setting [4]), the IFN-γ production result was “did not impact” and the IL-17A production result is “did not impact”. In experiment [1], the IL-22 production entry is “increased” and the TNF-α production result is reported as “increased”. Also, in experiment [2], the CCL-20 secretion entry was “decreased”, the GM-CSF secretion result is listed as “no difference”, the IFN-γ secretion result was “decreased” and the IL-2 secretion entry is “no difference”. Further, in experiment [2], the IL-9 secretion entry was “decreased”, the IL-10 secretion result was “no difference”, the IL-17A secretion result is reported as “decreased” and the IL-21 secretion result is listed as “no difference”. The “central memory phenotype (CD44^highCD62L^high)” value in experiment [3] was “did not impact their memory phenotype”.
